# Measurements as given in US20060116399A1, “Diarylmethylidene piperidine derivatives, preparations thereof and uses thereof” (AstraZeneca AB, priority 2003, published 2006).
# Read-outs that look alike come from different tables or passages of the source.
# Tests used:
# cloned human δ receptor = molecular target: T1, cloned human δ receptor (Homo sapiens, UniProt P41143); assay: δ receptor binding assay, displacement of 125I-Deltorphin II
# T1 construct: expressed in transfected cells
# cloned human μ receptor = molecular target: T2, cloned human μ receptor (Homo sapiens, UniProt P35372); assay: μ receptor binding assay, displacement of 125I-FK33824
# T2 construct: expressed in transfected cells; host or cells: human HEK-293S cells, neomycin resistance
# T2 sequence (P35372 whole entry): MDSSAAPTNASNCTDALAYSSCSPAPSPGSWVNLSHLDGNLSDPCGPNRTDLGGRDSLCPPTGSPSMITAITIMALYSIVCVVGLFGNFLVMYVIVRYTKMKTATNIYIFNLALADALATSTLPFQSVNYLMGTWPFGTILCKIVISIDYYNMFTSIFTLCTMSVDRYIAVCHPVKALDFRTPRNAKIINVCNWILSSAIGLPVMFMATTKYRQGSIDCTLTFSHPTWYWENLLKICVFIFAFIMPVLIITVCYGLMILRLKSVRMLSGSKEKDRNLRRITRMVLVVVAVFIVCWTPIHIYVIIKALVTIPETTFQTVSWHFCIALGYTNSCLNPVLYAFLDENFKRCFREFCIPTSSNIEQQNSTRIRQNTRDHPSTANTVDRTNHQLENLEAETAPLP
# human δ receptor = molecular target: T3, human δ receptor (Homo sapiens, UniProt P41143); assay: GTP[γ]35S binding functional assay, HEK-293S membranes; assay type: biochemical
# T3 construct: expressed in transfected cells
# T3 sequence (P41143 whole entry): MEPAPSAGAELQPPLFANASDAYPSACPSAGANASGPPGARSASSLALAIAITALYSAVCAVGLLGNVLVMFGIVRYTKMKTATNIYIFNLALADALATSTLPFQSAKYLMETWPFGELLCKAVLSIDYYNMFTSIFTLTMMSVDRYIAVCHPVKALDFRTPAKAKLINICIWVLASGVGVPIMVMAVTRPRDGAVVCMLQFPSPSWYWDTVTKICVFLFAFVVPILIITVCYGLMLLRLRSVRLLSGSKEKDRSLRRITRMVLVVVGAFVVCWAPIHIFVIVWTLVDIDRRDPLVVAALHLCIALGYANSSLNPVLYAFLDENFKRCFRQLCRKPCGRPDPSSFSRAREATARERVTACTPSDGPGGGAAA
# Procedure: Human 293S cells expressing cloned human κ, δ and μ receptors and neomycin resistance are grown in suspension at 37° C. and 5% CO2 in shaker flasks containing calcium-free DMEM10% FBS, 5% BCS, 0.1% Pluronic F-68, and 600 μg/ml geneticin.
# Cells are pelleted and resuspended in lysis buffer (50 mM Tris, pH 7.0, 2.5 mM EDTA, with PMSF added just prior to use to 0.1 mM from a 0.1 M stock in ethanol), incubated on ice for 15 min, then homogenized with a polytron for 30 sec. The suspension is spun at 1000 g (max) for 10 min at 4° C. The supernatant is saved on ice and the pellets resuspended and spun as before. The supernatants from both spins are combined and spun at 46,000 g (max) for 30 min. The pellets are resuspended in cold Tris buffer (50 mM Tris/Cl, pH 7.0) and spun again. The final pellets are resuspended in membrane buffer (50 mM Tris, 0.32 M sucrose, pH 7.0). Aliquots (1 ml) in polypropylene tubes are frozen in dry ice/ethanol and stored at −70° C. until use. The protein concentrations are determined by a modified Lowry assay with sodium dodecyl sulfate.
# The agonist activity of the compounds is measured by determining the degree to which the compounds receptor complex activates the binding of GTP to G-proteins to which the receptors are coupled. In the GTP binding assay, GTP[γ]^35S is combined with test compounds and membranes from HEK-293S cells expressing the cloned human opioid receptors or from homogenised rat or mouse brain. Agonists stimulate GTP[γ]^35S binding in these membranes. The EC50 and Emax values of compounds are determined from dose-response curves. Right shifts of the dose response curve by the delta antagonist naltrindole are performed to verify that agonist activity is mediated through delta receptors. For human δ receptor functional assays, EC50 (low) is measured when the human δ receptors used in the assay were expressed at lower levels in comparison with those used in determining EC50 (high). The Emax values were determined in relation to the standard δ agonist SNC80, i.e., higher than 100% is a compound that have better efficacy than SNC80.
# Rat brain membranes are thawed at 37° C., passed 3 times through a 25-gauge blunt-end needle and diluted in Mhe GTPγS binding (50 mM Hepes, 20 mM NaOH, 100 mM NaCl, 1 mM EDTA, 5 mM MgCl2, pH 7.4, Add fresh: 1 mM DTT, 0.1% BSA). 120 μM GDP final is added membranes dilutions. The EC50 and Emax of compounds are evaluated from 10-point dose-response curves done in 300 μl with the appropriate amount of membrane protein (20 μg/well) and 100000-130000 dpm of GTPγ^5S per well (0.11-0.14 nM). The basal and maximal stimulated binding are determined in absence and presence of 3 μM SNC-80. The assay performed on HEK 293s cells stably expressing cloned Delta receptors is done in a slightly different buffer (50 mM Hepes, 20 mM NaOH, 200 mM NaCl, 1 mM EDTA, 5 mM MgCl2, pH 7.4, Add fresh: 0.5% BSA, no DTT) and with a 3 μM final conc. of GDP.
# cloned human κ receptor = cloned human κ receptor (Homo sapiens, UniProt P41145); assay: κ receptor binding assay, displacement of 125I-DPDYN; settings: Table 1
# cloned human κ receptor, sequence (P41145 whole entry): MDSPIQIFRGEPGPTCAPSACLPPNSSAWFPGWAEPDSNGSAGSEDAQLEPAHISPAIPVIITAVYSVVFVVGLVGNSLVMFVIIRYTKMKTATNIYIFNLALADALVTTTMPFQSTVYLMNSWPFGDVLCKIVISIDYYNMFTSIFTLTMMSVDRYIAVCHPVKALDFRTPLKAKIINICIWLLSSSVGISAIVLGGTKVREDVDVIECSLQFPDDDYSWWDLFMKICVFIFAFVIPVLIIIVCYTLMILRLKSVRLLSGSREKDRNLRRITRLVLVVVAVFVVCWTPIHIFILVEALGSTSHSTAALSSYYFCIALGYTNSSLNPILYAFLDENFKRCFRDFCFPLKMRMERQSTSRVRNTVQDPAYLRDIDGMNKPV
# [1] = Table 2, lower receptor expression, relative to SNC80, range over several compounds, read-out: Human δ % Emax (low)
# T1 sequence (P41143 whole entry): as the sequence (P41143 whole entry) above
Structure (SMILES),IC50 (cloned human δ receptor) [nM],IC50 (cloned human μ receptor) [nM],EC50 (human δ receptor) [nM],Emax (human δ receptor; [1]) [%],IC50 (cloned human κ receptor) [nM],"Emax (human δ receptor; Table 1, higher receptor expression, relative to standard δ agonist SNC80, read-out: Human δ % EMax (high)) [%]"
"CCN(CC)C(=O)c1ccc(C(=C2CCN(Cc3cccs3)CC2)c2cccc(NC(=O)OC)c2)cc1 [Compound 1, [3-[[4-[(diethylamino)carbonyl]phenyl][1-(2-thienylmethyl)-4-piperidinylidene]methyl]phenyl]-carbamic acid, methyl ester]",0.3 to 0.35,62.8 to 498,1.8 to 5.97,93.7 to 128,–,–
"CCN(CC)C(=O)c1ccc(C(=C2CCN(Cc3ccco3)CC2)c2cccc(NC(=O)OC)c2)cc1 [Compound 2, [3-[[4-[(diethylamino)carbonyl]phenyl][1-(2-furanylmethyl)-4-piperidinylidene]methyl]phenyl]-carbamic acid, methyl ester]",0.3 to 0.35,62.8 to 498,1.8 to 5.97,93.7 to 128,–,–
"CCN(CC)C(=O)c1ccc(C(=C2CCN(Cc3ccccc3)CC2)c2cccc(NC(=O)OC)c2)cc1 [Compound 3, [3-[[4-[(diethylamino)carbonyl]phenyl][1-(phenylmethyl)-4-piperidinylidene]methyl]phenyl]-carbamic acid, methyl ester]",0.48,28.7,0.62,–,188,91.7
"CCN(CC)C(=O)c1ccc(C(=C2CCN(Cc3cncs3)CC2)c2cccc(NC(=O)OC)c2)cc1 [Compound 5, methyl 3-{{4-[(diethylamino)carbonyl]phenyl}[1-(1,3-thiazol-5-ylmethyl)piperidin-4-ylidene]methyl}phenylcarbamate]",0.3 to 0.35,62.8 to 498,1.8 to 5.97,93.7 to 128,–,–
